From ChEMBL document CHEMBL3991601, “The target landscape of clinical kinase drugs” (Science, 2017) come the findings set out here.

Molecules are shown by their SMILES. Calls of active or inactive are those of the source.

As usually defined, the Kd is the free concentration of one partner at which half of the binding sites on the other are occupied at equilibrium, for simple one-to-one binding.

Assay [1] deals with T1, Dynamin-like GTPase OPA1, mitochondrial (Homo sapiens, UniProt O60313).
T1 sequence (O60313 whole entry): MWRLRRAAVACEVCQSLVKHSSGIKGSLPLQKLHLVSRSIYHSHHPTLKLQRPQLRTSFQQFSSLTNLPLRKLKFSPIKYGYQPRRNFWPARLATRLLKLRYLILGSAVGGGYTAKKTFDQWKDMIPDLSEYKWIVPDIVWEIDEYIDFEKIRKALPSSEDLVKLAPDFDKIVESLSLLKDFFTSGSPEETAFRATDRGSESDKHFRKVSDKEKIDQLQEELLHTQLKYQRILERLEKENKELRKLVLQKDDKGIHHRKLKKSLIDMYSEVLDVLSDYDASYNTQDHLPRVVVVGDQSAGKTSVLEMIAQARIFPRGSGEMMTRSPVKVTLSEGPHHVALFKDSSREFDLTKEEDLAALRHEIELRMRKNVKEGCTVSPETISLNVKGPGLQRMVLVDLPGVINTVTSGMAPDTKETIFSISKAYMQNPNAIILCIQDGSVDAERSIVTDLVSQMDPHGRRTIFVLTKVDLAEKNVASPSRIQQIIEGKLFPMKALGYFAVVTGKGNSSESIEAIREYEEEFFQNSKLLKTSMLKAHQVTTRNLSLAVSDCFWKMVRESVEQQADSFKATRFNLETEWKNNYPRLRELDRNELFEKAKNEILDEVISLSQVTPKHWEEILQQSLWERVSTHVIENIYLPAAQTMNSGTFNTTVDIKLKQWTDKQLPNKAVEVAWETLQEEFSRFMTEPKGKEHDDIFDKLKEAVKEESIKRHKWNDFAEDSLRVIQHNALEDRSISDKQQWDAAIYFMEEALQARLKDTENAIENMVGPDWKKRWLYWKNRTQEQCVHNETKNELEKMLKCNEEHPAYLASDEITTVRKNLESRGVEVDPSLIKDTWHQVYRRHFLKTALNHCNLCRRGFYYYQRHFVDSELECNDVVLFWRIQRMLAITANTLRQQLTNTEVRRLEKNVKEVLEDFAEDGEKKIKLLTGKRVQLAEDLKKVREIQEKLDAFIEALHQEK

The next assay concerns the target LIM domain kinase 1 (Homo sapiens, UniProt P53667).
Assay [2] addresses T2, Serine/threonine-protein kinase A-Raf (Homo sapiens, UniProt P10398).
T2 sequence (P10398 whole entry): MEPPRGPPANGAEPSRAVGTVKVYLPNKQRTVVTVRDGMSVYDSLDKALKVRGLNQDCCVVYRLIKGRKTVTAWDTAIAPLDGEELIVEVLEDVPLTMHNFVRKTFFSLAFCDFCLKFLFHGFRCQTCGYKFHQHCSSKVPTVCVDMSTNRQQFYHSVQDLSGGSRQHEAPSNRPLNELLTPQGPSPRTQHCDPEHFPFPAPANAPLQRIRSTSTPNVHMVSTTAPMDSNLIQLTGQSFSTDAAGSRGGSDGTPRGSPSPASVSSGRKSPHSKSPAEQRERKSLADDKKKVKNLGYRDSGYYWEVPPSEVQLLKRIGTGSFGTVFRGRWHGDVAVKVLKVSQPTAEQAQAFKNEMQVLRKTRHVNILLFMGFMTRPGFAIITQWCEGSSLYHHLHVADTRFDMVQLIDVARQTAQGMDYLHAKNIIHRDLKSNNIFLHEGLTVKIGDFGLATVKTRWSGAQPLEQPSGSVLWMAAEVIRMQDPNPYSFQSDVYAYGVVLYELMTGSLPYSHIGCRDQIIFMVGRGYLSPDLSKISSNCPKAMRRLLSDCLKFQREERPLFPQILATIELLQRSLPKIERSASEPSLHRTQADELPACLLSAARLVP

In assay [3] the target is Platelet-derived growth factor receptor beta (Homo sapiens, UniProt P09619).
Platelet-derived growth factor receptor beta, sequence (P09619 whole entry): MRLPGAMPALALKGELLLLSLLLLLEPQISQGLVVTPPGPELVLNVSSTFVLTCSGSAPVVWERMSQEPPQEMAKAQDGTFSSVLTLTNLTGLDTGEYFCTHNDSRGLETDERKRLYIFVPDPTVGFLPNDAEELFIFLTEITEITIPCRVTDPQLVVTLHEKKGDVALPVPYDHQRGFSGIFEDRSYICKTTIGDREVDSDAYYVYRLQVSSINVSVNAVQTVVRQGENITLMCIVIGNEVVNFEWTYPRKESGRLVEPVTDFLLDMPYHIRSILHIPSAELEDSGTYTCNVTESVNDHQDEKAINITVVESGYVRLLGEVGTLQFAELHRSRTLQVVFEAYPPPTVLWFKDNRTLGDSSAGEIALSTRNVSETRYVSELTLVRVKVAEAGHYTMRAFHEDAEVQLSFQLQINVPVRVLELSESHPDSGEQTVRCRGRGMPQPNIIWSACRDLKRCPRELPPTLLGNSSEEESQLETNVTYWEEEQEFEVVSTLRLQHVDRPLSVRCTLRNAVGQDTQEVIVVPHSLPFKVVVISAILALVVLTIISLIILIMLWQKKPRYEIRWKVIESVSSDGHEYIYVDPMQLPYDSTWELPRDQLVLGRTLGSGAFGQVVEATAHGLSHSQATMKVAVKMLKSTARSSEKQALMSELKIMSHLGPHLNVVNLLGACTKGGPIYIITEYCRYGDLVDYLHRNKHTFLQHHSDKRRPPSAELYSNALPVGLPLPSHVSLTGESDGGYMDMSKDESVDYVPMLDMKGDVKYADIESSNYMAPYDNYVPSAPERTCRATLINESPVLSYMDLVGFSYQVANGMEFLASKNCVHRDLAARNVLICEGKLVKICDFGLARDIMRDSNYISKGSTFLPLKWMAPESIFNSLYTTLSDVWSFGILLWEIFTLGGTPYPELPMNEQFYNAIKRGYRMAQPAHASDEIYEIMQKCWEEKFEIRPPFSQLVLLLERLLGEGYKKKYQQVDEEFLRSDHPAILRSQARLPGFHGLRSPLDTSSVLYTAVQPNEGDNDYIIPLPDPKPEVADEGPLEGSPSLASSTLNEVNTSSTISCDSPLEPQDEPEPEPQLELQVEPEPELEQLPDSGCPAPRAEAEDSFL
Assay [4] deals with Protein kinase C alpha type (Homo sapiens, UniProt P17252).
Assay [5] deals with S-adenosylmethionine synthase isoform type-2 (Homo sapiens, UniProt P31153).
S-adenosylmethionine synthase isoform type-2, sequence (P31153 whole entry, canonical isoform): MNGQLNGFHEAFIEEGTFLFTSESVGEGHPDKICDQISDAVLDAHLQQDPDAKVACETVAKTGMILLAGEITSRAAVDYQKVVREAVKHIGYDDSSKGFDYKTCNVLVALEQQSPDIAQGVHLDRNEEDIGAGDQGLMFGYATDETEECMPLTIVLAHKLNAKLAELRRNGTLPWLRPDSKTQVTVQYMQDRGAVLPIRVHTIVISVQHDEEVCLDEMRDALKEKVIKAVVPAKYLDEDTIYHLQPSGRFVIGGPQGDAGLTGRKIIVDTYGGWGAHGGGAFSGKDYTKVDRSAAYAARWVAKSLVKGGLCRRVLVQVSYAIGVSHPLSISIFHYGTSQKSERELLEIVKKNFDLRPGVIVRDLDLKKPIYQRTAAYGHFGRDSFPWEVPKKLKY
In assay [6] the target is T3, Ras-related protein Rab-10 (Homo sapiens, UniProt P61026).
T3 sequence (P61026 whole entry): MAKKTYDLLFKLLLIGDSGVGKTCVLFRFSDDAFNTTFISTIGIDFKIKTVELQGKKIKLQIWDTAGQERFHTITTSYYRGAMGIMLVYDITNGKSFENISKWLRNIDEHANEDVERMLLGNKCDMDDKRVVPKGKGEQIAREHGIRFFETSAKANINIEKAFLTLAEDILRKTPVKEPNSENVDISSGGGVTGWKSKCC

For assay [7], the target named is T4, Serine/threonine-protein kinase NLK (Homo sapiens, UniProt Q9UBE8).
T4 sequence (Q9UBE8 whole entry): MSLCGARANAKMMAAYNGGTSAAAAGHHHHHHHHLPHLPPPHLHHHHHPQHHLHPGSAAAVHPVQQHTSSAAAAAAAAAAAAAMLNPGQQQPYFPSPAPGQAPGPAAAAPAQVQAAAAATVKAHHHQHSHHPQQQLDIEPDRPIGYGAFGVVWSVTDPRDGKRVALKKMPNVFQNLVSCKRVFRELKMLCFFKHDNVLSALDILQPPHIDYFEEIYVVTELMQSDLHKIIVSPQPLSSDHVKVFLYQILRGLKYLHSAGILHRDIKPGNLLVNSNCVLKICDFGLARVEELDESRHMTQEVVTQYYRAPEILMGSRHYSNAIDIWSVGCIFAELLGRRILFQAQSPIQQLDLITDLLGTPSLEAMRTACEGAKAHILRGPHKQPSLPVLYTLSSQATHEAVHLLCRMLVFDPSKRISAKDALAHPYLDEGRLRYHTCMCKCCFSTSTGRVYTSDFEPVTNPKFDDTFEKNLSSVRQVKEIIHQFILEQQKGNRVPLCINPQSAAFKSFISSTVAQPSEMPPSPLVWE

A further assay addresses Midasin (Homo sapiens, UniProt Q9NU22).
Further: in the data inactive means no Kd found up to 30 µM.

LIM domain kinase 1, sequence (P53667 whole entry, the tested form may be a part): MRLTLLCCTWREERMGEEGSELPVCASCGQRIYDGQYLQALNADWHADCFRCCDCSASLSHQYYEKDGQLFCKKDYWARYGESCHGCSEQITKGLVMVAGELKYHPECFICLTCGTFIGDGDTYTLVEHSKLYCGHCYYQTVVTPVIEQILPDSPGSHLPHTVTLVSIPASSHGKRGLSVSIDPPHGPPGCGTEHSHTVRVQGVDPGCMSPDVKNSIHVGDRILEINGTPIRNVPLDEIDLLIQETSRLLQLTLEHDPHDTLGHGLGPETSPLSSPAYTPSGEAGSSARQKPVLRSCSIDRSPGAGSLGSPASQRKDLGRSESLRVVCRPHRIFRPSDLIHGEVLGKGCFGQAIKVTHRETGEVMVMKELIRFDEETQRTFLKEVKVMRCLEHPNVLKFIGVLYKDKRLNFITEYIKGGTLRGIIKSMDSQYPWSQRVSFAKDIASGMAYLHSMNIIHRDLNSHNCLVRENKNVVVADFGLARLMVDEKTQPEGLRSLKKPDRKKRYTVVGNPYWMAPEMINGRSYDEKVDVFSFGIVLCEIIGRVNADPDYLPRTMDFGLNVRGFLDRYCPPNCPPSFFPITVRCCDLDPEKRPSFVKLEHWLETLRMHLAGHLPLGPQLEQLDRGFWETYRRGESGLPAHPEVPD

On to `C=CC(=O)Nc1cccc(Nc2nc(Nc3ccc(N4CCN(C(C)=O)CC4)cc3OC)ncc2C(F)(F)F)c1` [ROCILETINIB], for which the Kd (in [1]; at LIM domain kinase 1; in [2]; in assay [3]; in assay [4]; in assay [5]) was > 30 µM (inactive) in each case. Further, the Kd (in assay [6]; in assay [7]; at Midasin) was > 30 µM (inactive) each time.
`O=c1[nH]c([C@@H]2CCCN2)nc2c1oc1ccc(Cl)cc12`: the Kd (in [1]; on LIM domain kinase 1; in [2]; in [3]; in assay [4]; in assay [5]) was > 30 µM (inactive) each time. Further, the Kd (in [6]; in assay [7]; at Midasin) was > 30 µM (inactive) each time.
On to `Cc1c(Cn2c(C)nc3c(C(=O)O)cc(N4CCOCC4)cc32)cccc1C(F)(F)F` [GSK-2636771], for which the Kd (in assay [1]; at LIM domain kinase 1; in [2]; in assay [3]; in assay [4]; in assay [5]) was > 30 µM (inactive) throughout. In addition, the Kd (in assay [6]; in assay [7]; on Midasin) was > 30 µM (inactive) throughout.
Turning to `COc1cc2ncnc(Nc3ccc(O)cc3)c2cc1OC` [WHI-P131], the Kd (in assay [1]; on LIM domain kinase 1; in [2]; in assay [3]; in [4]; in assay [5]) was > 30 µM (inactive) each time. Besides, the Kd (in [6]; in assay [7]; at Midasin) was > 30 µM (inactive) each time.
For the molecule `Cn1c(=O)c(F)c(Nc2ccc(I)cc2F)c2c(=O)n(C[C@@H](O)CO)cnc21` [TAK-733], the Kd (in [1]; on LIM domain kinase 1; in assay [2]; in [3]; in [4]; in assay [5]) was > 30 µM (inactive) throughout. The Kd (in assay [6]; in [7]; on Midasin) was > 30 µM (inactive) in each case.
For the molecule `COc1cccc(Nc2ncnn3ccc(CN4CC[C@@H](N)[C@H](O)C4)c23)c1` [BMS-690514], the Kd in assay [1] is > 30 µM (inactive); on LIM domain kinase 1, > 30 µM (inactive); in [2] it was > 30 µM (inactive); in assay [3], > 30 µM (inactive); in assay [4], 1.56 µM (active); in assay [5], > 30 µM (inactive). In addition, the Kd (in [6]; in [7]; at Midasin) was > 30 µM (inactive) throughout.
Consider `S=C(NCc1ccc2c(c1)OCO2)N1CCN(c2ncnc3c2oc2ccccc23)CC1` [AMUVATINIB], for which the Kd (in [1]; at LIM domain kinase 1; in [2]; in [3]; in [4]; in assay [5]) was > 30 µM (inactive) in each case. Moreover, the Kd (in assay [6]; in assay [7]; on Midasin) was > 30 µM (inactive) each time.
Regarding `C=CC(=O)Nc1cc(Nc2nccc(-c3cn(C)c4ccccc34)n2)c(OC)cc1N(C)CCN(C)C` [OSIMERTINIB], the Kd (in assay [1]; on LIM domain kinase 1; in [2]; in assay [3]; in assay [4]; in assay [5]) was > 30 µM (inactive) in each case. Moreover, the Kd (in assay [6]; in assay [7]; at Midasin) was > 30 µM (inactive) in each case.
